Measured values from patent publication US11718628B2, “SREBP inhibitors comprising a 6-membered central ring” (Capulus Therapeutics, LLC, priority 2018, dated 2023).
Read-outs that look alike come from different tables or passages of the source.

How the values were obtained:
[1] = Log D by octanol/aqueous buffer partitioning; format: physicochemical; conditions: pH 7.4, 1-octanol/buffer
Description: The Log D of selected compounds was evaluated by octanol/aqueous buffer partitioning. 500 μL of organic phase (1-octanol) was added to each well of a 2 mL deep well plate, followed by 500 μL of buffer and 15 μL of test compound in DMSO (0.15 mM). The plate was vortexed for 10 seconds and incubated at room temperature for 1 hr on a plate shaker at 200 rpm. After incubation, the samples were allowed to equilibrate for 20 min and then centrifuged at 4000 rpm for 30 min for complete phase separation. The distribution of test compound in buffer and octanol phase was analyzed by HPLC-UV. Log D=Log (Area of Octanol/Area of Buffer).

[2] = In vivo pharmacokinetic properties in rats (IV and PO); set-up: species or system male Sprague Dawley rats; conditions: for % F (Bioavailability of oral delivery) / bioavailability: PO 10 mg/kg vs IV 2 mg/kg; for AUC(0-t) / clearance / half-life / Vd / bioavailability / Tmax: male, Sprague Dawley, rat, plasma; for clearance: read-out: Intravenous Delivery (IV) CL; for Vd: read-out: Intravenous Delivery (IV) Vd; for bioavailability: read-out: % F (Bioavailability of oral delivery); for Tmax: read-out: Oral Administration (PO) Tmax
Description: (§1) The in vivo pharmacokinetic properties of compounds by both intravenous and oral administration were evaluated in male Sprague Dawley rats or C57BL/6J mice.
(§2) Animals were housed in cages with clean bedding. Certified rodent diet was provided. Water was available ad libitum. Environmental controls for the animal room were set to maintain a temperature of 22° C. to 25° C., humidity of 40-70% RH, and a 12-hour light/12-hour dark cycle. Normal healthy animals certified by the attending veterinarian were selected and acclimatized for minimum three days prior to initiation of study.
Surgical Procedure for Jugular Vein Cannulation of Rats: Rats were anaesthetized with a single dose of ketamine 50 mg/kg i.p.+xylazine 6 mg/kg i.p. The right jugular vein was exposed, a loose ligature was placed caudally, and the cranial end of vein was ligated. A small incision was made between the ligatures into which the catheter (polyethylene 50 tubing of internal diameter 0.58 mm and outer diameter 0.96 mm) was inserted. The catheter was secured in place by tying the loose ligature around the catheterized vessel. A small incision was made in the scapular region to serve as the exit site of the catheter. The catheter was subcutaneously tunneled and exteriorized through scapular incision. A stay suture was placed in the scapular area. Patency was tested, and catheter was filled with a locking solution (heparinized saline) and sealed with a stainless steel plug. The incision was then sutured with sterile suturing material. Anti-septic solution was applied to the sutured site and animal was placed back in the home cage.
(§3) To evaluate pharmacokinetic properties of intravenous delivery, male Sprague Dawley rats were administered 2.00 mg compound/kg animal weight through the tail vein. The concentration of the compound in the plasma of the animals was evaluated at 0.083, 0.25, 0.5, 1, 2, 4, 8, 12 and 24 hr by taking blood samples from the cannulated jugular vein. For the C5Bl/6J mice, blood samples were collected through a capillary, guided in retro-orbital plexus.
To evaluate pharmacokinetic properties of oral delivery, rats (male Sprague Dawley rats) or mice (C5Bl/6J) were administered 10 mg compound/kg animal weight by mouth. The concentration of compound in the plasma of the animals was evaluated at 0.25, 0.5, 1, 2, 4, 6, 8, 12 and 24 hr by taking blood samples from the cannulated jugular vein (rats) or through a capillary, guided in retro-orbital plexus (mice).

[3] = tested on: liver gene expression (ACACA, ACLY, FASN, LSS, PNPLA3); test: Liver gene expression in mice after oral administration; format: in vivo; conditions: 30 mpk, vs vehicle
Description: (§4) The pharmacodynamic properties of selected compounds were evaluated in mice. The animals were housed in cages with clean bedding, and maintained and monitored for good health in accordance with Test Facility SOPs and at the discretion of the laboratory animal veterinarian. Certified rodent diet was provided. Food and water was available ad libitum. Environmental controls for the animal room were set to maintain a temperature of 22° C. to 25° C., humidity of 40-70% RH, and a 12-hour light/[…]. Normal healthy animals certified by the attending veterinarian were selected and acclimatized for minimum three days prior to initiation of study. Animals were identified with body markings.
(§5) Aliquots of the compounds being evaluated were weighed and triturated with 0.5% methylcellulose (with the addition of 5% N-methyl pyrrolidone when required to remove clumping, as for Z-806) to an appropriate dose concentration. Vials were labeled with the information about study number, test item, concentration and date of preparation. A description of appearance of formulation was recorded (e.g., color, turbidity, etc.). The composition of formulation vehicle was recorded. An aliquot of each dose solution was taken before the dosing began and after dosing was finished, and stored at approximately −20° C. or below for subsequent analysis. The animals were dosed orally through oral gavage needle, and time of dosing was recorded.
(§6) Liver Collection at 6 h or 24 h: Immediately after blood withdrawal for pharmacokinetic evaluation (at 6 or at 24 h), liver tissue was collected without perfusion. Animals were euthanized using carbon dioxide gas in a CO2 chamber. The whole blood was drained by cutting the both side jugular vein and abdominal aorta. The liver was separated out. All the liver samples were divided in two parts. The first part (200 mg approx.) was snap frozen using liquid nitrogen as soon as possible. These samples were immediately transferred to −80° C. for storage. The remaining part was weighed and used for bioanalysis.
RNA Processing and Gene Expression Analysis: Liver Tissue RNA was harvested with the RNEasy kit and 20-100 ng used to synthesize cDNA with random primers following the manufacturer's protocol. Quantitative PCR was performed on 1 pg to 100 ng cDNA for the following genes: ACACA, ACLY, FASN, LSS, PNPLA3. Gene expression levels were determined using ΔΔCT method comparing treated to vehicle treated samples as a baseline, and fold change calculated. The average value for all 5 genes above was averaged and termed to Total Fold Change The results from this evaluation are presented in Table 8.

[4] = Plasma and liver compound levels in mice after oral administration; format: in vivo; conditions: 30 mpk; for concentration at 6 h / concentration at 24 h: mouse, 30 mg/kg
Description: as §4, §5
After dosing, the mice were anesthetized using gaseous anesthesia. Blood samples were collected through a capillary, guided in retro-orbital plexus, at 6 h or at 24 h. Approximately 100 uL of blood was collected from each mouse, in pre-labeled tubes. The collected blood was stored on ice prior to centrifugation. Blood samples were then centrifuged within 1 hour of collection to separate plasma. Centrifugation was conducted at 2500×g for 15 minutes at 4° C. The plasma was separated and transferred to pre-labeled micro-centrifuge tubes and promptly frozen at −80±10° C. until bioanalysis.
as §6

[5] = In vivo pharmacokinetic properties in mice (IV and PO); set-up: species or system C57BL/6J mice; conditions: mouse, in vivo
Description: as §1, §2, §3
[…] The concentration of compound in the plasma of the animals was evaluated at 0.25, 0.5, 1, 2, 4, 6, 8, 12 and 24 hr by taking blood samples from the cannulated jugular vein (rats) or through a capillary, guided in retro-orbital plexus (mice).

[6] = 1-octanol/aqueous buffer, read-out: LogD
[7] = 10 mg/kg, heading: Oral Administration AUC0-last, PO, 10 mg/kg
[8] = IV, 2 mg/kg, read-out: Intravenous Delivery (IV) AUC0-last
[9] = IV, 2 mg/kg, read-out: Intravenous Delivery (IV) T1/2 (converted)
[10] = PO, 10 mg/kg, read-out: Oral Administration (PO) T1/2 (converted)

SMILES | LogD [1] | Intravenous Delivery (IV) CL ([2]; IV, 2 mg/kg) | Intravenous Delivery (IV) T1/2 ([2]; IV, 2 mg/kg) | Intravenous Delivery (IV) Vd ([2]; IV, 2 mg/kg) | % F (Bioavailability of oral delivery) [2] | Oral Administration (PO) AUC0-last ([2]; PO, 10 mg/kg) | Oral Administration (PO) T1/2 ([2]; PO, 10 mg/kg) | Oral Administration (PO) Tmax ([2]; PO, 10 mg/kg) | Total Gene FC Time (6 h) [3] | Total Gene FC Time (24 h) [3] | Liver ng/mg (6 h) [4] | Plasma ng/mL (6 h) [4] | Liver ng/mg 24 h [4] | Plasma ng/mL (24 h) [4] | LogD [1, 6] | AUC(0-t) [2, 7] | AUC(0-t) [2, 8] | clearance ([2]; IV, 2 mg/kg) | half-life [2, 9] | Vd ([2]; IV, 2 mg/kg) | also measured
CC(C)(C)c1cc(-c2cccc(-c3ccc(C(=O)N4CCC(O)CC4)cc3Cl)c2)ccn1 [Compound Z-744] | 4.12 | 13.1 mL/min/kg | 1.91 h | 2.16 L/kg | 8.6% | 1058 | 2.35 h | 2 h | ++ (0.51-0.7509 = ++) | + (>0.751 = +) | >1000 ng/mg | 100 to 1000 ng/mL | >1000 ng/mg | 100 to 1000 ng/mL | – | – | – | – | – | – | –
CC(C)(O)c1cc(-c2cncc(-c3ccc(C(=O)N4CCC(O)CC4)cc3Cl)c2)ccn1 [Compound Z-796, (3-chloro-4-(2′-(2-hydroxypropan-2-yl)-[3,4′-bipyridin]-5-yl)phenyl)(4-hydroxypiperidin-1-yl)methanone] | – | – | – | – | – | – | – | – | + (>0.751 = +) | + (>0.751 = +) | – | – | – | – | 2.08 | 7140 ng·h/mL | 3800 ng·h/mL | 8.78 mL/min/kg | 3.08 h | 2.37 L/kg | bioavailability [2]: 38%; half-life [2, 10]: 3.22 h; Tmax ([2]; PO, 10 mg/kg): 0.667 h; concentration at 6 h ([4]; liver, read-out: Liver ng/mg (6 h)): > 1e+06 ng/g; concentration at 24 h ([4]; liver, read-out: Liver ng/mg 24 h): < 100000 ng/g; concentration at 6 h ([4]; plasma, read-out: Plasma ng/mL (6 h)): 100 to 1000 ng/mL; concentration at 24 h ([4]; plasma, read-out: Plasma ng/mL (24 h)): < 100 ng/mL
CC(C)(C)c1cc(-c2cncc(-c3ccc(NS(C)(=O)=O)cc3Cl)c2)ccn1 [Compound Z-803, N-(4-(2′-(tert-butyl)-[3,4′-bipyridin]-5-yl)-3-chlorophenyl)methanesulfonamide] | – | – | – | – | – | – | – | – | – | – | – | – | – | – | 3.84 | 2580 ng·h/mL | 6160 ng·h/mL | 5.2 mL/min/kg | 4.86 h | 2.18 L/kg | bioavailability [2]: 8.3%; half-life [2, 10]: 4.37 h; Tmax ([2]; PO, 10 mg/kg): 3.33 h
Cc1cc(C(=O)N2CCC(O)CC2)ccc1-c1cncc(-c2ccnc(C(C)(C)C)c2)c1 [Compound Z-817] | 3.36 | 5.24 mL/min/kg | 3.11 h | 1.41 L/kg | 13% | 3992 | 2.56 h | 0.33 h | + (>0.751 = +) | + (>0.751 = +) | 100 to 1000 ng/mg | <100 ng/mL | <100 ng/mg | <100 ng/mL | – | – | – | – | – | – | –
CC(C)(C)c1cc(-c2cncc(-c3c(Cl)cc(C(=O)N4CCC(O)CC4)cc3Cl)c2)ccn1 [Z-826] | – | 10.7 mL/min/kg | 3.19 h | 2.97 L/kg | 35% | 5387 | 3.05 h | 1 h | + (>0.751 = +) | ++ (0.51-0.7509 = ++) | >1000 ng/mg | >1000 ng/mL | >1000 ng/mg | 100 to 1000 ng/mL | – | – | – | – | – | – | % F (Bioavailability of oral delivery) [5]: 82%; Intravenous Delivery (IV) AUC0-last ([5]; iv, 2 mg/kg): 3930 ng·h/mL; Intravenous Delivery (IV) CL ([5]; iv, 2 mg/kg): 8.45 mL/min/kg; Intravenous Delivery (IV) T1/2 ([5]; iv, 2 mg/kg): 3.24 h; Intravenous Delivery (IV) Vd ([5]; iv, 2 mg/kg): 2.37 L/kg; Oral Administration (PO) AUC0-last ([5]; po, 10 mg/kg): 15000 ng·h/mL; Oral Administration (PO) T1/2 ([5]; po, 10 mg/kg): 6.2 h; Oral Administration (PO) Tmax ([5]; po, 10 mg/kg): 0.25 h
